Laboratory results from US8642770B2, “Indole derivative” (Takeda Pharmaceutical Company Limited, priority 2010, dated 2014).

Key:
human MCHR1 = target: T1, human MCHR1 (Homo sapiens, UniProt Q99705); assay: Human MCH receptor 1 (MCHR1) competitive binding assay, [125I]-MCH(4-19), CHO cell membrane fraction; settings: test compound 0.1 μM, human MCHR1-expressing CHO cell membrane, 25° C., 1 hr, read-out: Binding inhibition rate (0.1 μM)
T1 construct: expressed in transfected cells; host or cells: CHO cell clone 57 (membrane fraction)
Protocol: Determination of Human MCH Receptor 1 (MCHR1) Competitive Inhibitory Activity of Test Compound Using Binding Assay
Using human MCHR1(=SLC-1 receptor)-expressing CHO cell clone 57 and rat MCHR1-expressing CHO cell clone 44 described in WO01/82925, MCHR1-expressing CHO cellular membrane fractions were prepared by the following method. In phosphate buffered saline (pH 7.4) supplemented with 5 mM EDTA (ethylenediaminetetraacetic acid) were respectively suspended human and rat MCHR1-expressing CHO cells (1×10^8 cells) and centrifuged. Homogenate buffer (10 mL, 10 mM NaHCO3, 5 mM EDTA, pH 7.5, 0.5 mM PMSF (phenylmethylsulfonyl fluoride), 20 mg/L leupeptin, 4 mg/L E-64, 1 mg/L pepstatin A) was added to the pellets of the cells and, using Polytron Homogenizer, the mixture was homogenated. The supernatant obtained after centrifugation at 400×g for 10 min was further centrifuged at 100,000×g for 1 hr to give precipitate of the membrane fraction. The precipitate were suspended in 2 mL of assay buffer [20 mM Tris-HCl (pH 7.5), 5 mM EDTA, 0.5 mM PMSF, 20 mg/L leupeptin, 4 mg/L E-64, 1 mg/L pepstatin A]. The membrane fractions were suspended in assay buffer to a protein concentration of 2 mg/mL, and after dispensing, preserved at −80° C. and used upon thawing each time when in use.
The MCHR1 ligand binding inhibitory activity of the test compound was determined as follows. An MCHR1-expressing CHO cellular membrane fraction (175 μL) diluted with an assay buffer was dispensed to a 96 well polypropylene plate (3363, Corning). DMSO solution (2 μL), 100 μm cold MCH(1-19) diluted with DMSO solution (2 μL), or a test compound solution diluted with DMSO solution to various concentrations (2 μL) was added, and lastly, [^125I]-MCH(4-19) diluted with assay buffer (25 μL) was added to each well. The reaction mixture was reacted at 25° C. for 1 hr with stirring, and the reaction mixture was filtered by suction using a glass filter plate (GF/C, PerkinElmer). The filter was washed 3 times with a wash solution (300 μL, 50 mM Tris-HCl buffer, pH 7.5). The glass filter plate was dried, a liquid scintillator was added at 25 μL/well, and the residual radioactivity was measured by TopCount (PerkinElmer). The binding inhibition rate of the test compound was calculated by the following formula. Binding inhibition (%)=(radioactivity upon addition of test compound and hot MCH−radioactivity upon addition of cold MCH and hot MCH solution)/(radioactivity upon addition of DMSO solution and hot MCH−radioactivity upon addition of cold MCH and hot MCH solution)×100

[1] = test system: Dietary obese male F344/Jcl rats; assay: Anorectic effect (food intake) in dietary obese male F344/Jcl rats; type: in vivo; settings: Rattus norvegicus, 48 h; oral, 0.5% methylcellulose suspension (5 mg/mL) at 2 mL/kg, on start day and evening of next day; food intake from initial administration to 2 days later; vs control group; read-out: Food intake inhibition rate (%)
Text: Evaluation of Anorectic Effect Using Dietary Obese Male F344/Jcl Rats
Dietary obese male F344/Jcl rats (42-57-week-old) reared on a high-fat diet (Research Diets: D12451) from 5 weeks of age were used. From before the start of experiment, the rats were independently raised, a powder high-fat diet (Research Diets: D12451M) was given, tap water was orally administered for acclimation, and thereby the rats were habituated. The food intake from the evening of the day before the start of experiment to the next morning was measured, and the rats were grouped based on the food intake and the body weight of the previous day as indices. On the day of the start of experiment and in the evening of the next day, 0.5% methylcellulose solution was orally administered to the control group, and 0.5% methylcellulose suspension (5 mg/mL) of the test compound was orally administered to the compound administration group at 2 mL/kg (6 per group for both control group and compound administration group). The food intake from the initial administration to 2 days later was measured. The food intake inhibition rate of each compound administration group to the control group was calculated.

T1 sequence (Q99705 whole entry): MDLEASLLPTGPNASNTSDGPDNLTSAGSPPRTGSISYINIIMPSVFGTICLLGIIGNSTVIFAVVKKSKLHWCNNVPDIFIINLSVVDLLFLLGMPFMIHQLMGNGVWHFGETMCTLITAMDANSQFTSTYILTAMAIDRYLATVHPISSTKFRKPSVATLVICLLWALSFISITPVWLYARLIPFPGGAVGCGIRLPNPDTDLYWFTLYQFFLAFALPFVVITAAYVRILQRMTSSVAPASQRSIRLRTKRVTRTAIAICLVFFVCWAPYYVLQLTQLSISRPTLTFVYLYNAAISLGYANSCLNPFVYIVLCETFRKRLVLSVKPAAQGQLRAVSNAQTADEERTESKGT

SMILES | melting point | inhibition at 0.1 µM (human MCHR1) | inhibition in vivo at 10 mg/kg [1]
Cc1c(NC(=O)c2ccc(OC[C@@H]3CCCO3)cc2)ccc2c1cc(CNCC(C)(C)C)n2C [Example 51, N-(2-{[(2,2-dimethylpropyl)amino]methyl}-1,4-dimethyl-1H-indol-5-yl)-4-[(2S)-tetrahydrofuran-2-ylmethoxy]benzamide] | 179 °C | 92% | 
Cc1c(NC(=O)c2ccc(OCC3CC3)cc2)ccc2cc(CNCC(C)(C)O)[nH]c12 [Example 63, 4-(cyclopropylmethoxy)-N-(2-{[(2-hydroxy-2-methylpropyl)amino]methyl}-7-methyl-1H-indol-6-yl)benzamide] | 170 °C | 98% | 
Cc1c(NC(=O)c2ccc(OC[C@@H]3CCCO3)cc2)ccc2cc(CNCC3CCOCC3)[nH]c12 [Example 70, N-(7-methyl-2-{[(tetrahydro-2H-pyran-4-ylmethyl)amino]methyl}-1H-indol-6-yl)-4-[(2S)-tetrahydrofuran-2-ylmethoxy]benzamide] | 161 to 162 °C | 95% | 
Cc1c(NC(=O)c2ccc(OC[C@@H]3CCCO3)cc2)ccc2cc(CN3CCCC3)[nH]c12 [Example 74, N-[7-methyl-2-(pyrrolidin-1-ylmethyl)-1H-indol-6-yl]-4-[(2S)-tetrahydrofuran-2-ylmethoxy]benzamide] | 172 to 173 °C | 91% | 
Cc1c(NC(=O)c2ccc(OC[C@@H]3CCCO3)cc2)ccc2cc(CN3CCC(C)(O)CC3)[nH]c12 [Example 75, N-{2-[(4-hydroxy-4-methylpiperidin-1-yl)methyl]-7-methyl-1H-indol-6-yl}-4-[(2S)-tetrahydrofuran-2-ylmethoxy]benzamide] | 169 °C | 94% | 17.1%
Cc1c(NC(=O)c2ccc(OCC3CC3)cc2)ccc2cc(CNCC(C)(C)O)n(C)c12 [Example 78, 4-(cyclopropylmethoxy)-N-(2-{[(2-hydroxy-2-methylpropyl)amino]methyl}-1,7-dimethyl-1H-indol-6-yl)benzamide] | 180 °C | 91% | 
Cc1c(CNCC(C)(C)C)[nH]c2c(F)c(NC(=O)c3ccc(OC[C@@H]4CCCO4)cc3)ccc12 [Example 103, N-(2-{[(2,2-dimethylpropyl)amino]methyl}-7-fluoro-3-methyl-1H-indol-6-yl)-4-[(2S)-tetrahydrofuran-2-ylmethoxy]benzamide] | 159 to 160 °C | 100% | 
Cc1c(CNCC(C)C)[nH]c2c(F)c(NC(=O)c3ccc(OC[C@@H]4CCCO4)cc3)ccc12 [Example 104, N-(7-fluoro-2-{[(2-methylpropyl)amino]methyl}-3-methyl-1H-indol-6-yl)-4-[(2S)-tetrahydrofuran-2-ylmethoxy]benzamide] | 134 to 135 °C |  | 
Cc1c(CNCC(C)C)n(C)c2c(C)c(NC(=O)c3ccc(OC[C@@H]4CCCO4)cc3)ccc12 [Example 106, N-(2-{[(2-methylpropyl)amino]methyl}-1,3,7-trimethyl-1H-indol-6-yl)-4-[(2S)-tetrahydrofuran-2-ylmethoxy]benzamide] | 171 to 172 °C |  | 
Cc1c(CNCC2CCOCC2)n(C)c2c(C)c(NC(=O)c3ccc(OC[C@@H]4CCCO4)cc3)ccc12 [Example 107, 4-[(2S)-tetrahydrofuran-2-ylmethoxy]-N-(1,3,7-trimethyl-2-{[(tetrahydro-2H-pyran-4-ylmethyl)amino]methyl}-1H-indol-6-yl)benzamide] | 173 to 174 °C |  | 
Cc1c(CNCC(C)(C)O)n(C)c2c(C)c(NC(=O)c3ccc(OC[C@@H]4CCCO4)cc3)ccc12 [Example 108, N-(2-{[(2-hydroxy-2-methylpropyl)amino]methyl}-1,3,7-trimethyl-1H-indol-6-yl)-4-[(2S)-tetrahydrofuran-2-ylmethoxy]benzamide] | 186 to 188 °C |  | 
Cc1c(CNCC(C)(C)O)n(C)c2c(C)c(NC(=O)c3ccc(OC[C@@H]4CCCO4)cc3F)ccc12 [Example 111, 2-fluoro-N-(2-{[(2-hydroxy-2-methylpropyl)amino]methyl}-1,3,7-trimethyl-1H-indol-6-yl)-4-[(2S)-tetrahydrofuran-2-ylmethoxy]benzamide] | 131 to 132 °C |  | 
Cc1c(CNCC2CCOCC2)n(C)c2c(F)c(NC(=O)c3ccc(OC[C@@H]4CCCO4)cc3)ccc12 [Example 113, N-(7-fluoro-1,3-dimethyl-2-{[(tetrahydro-2H-pyran-4-ylmethyl)amino]methyl}-1H-indol-6-yl)-4-[(2S)-tetrahydrofuran-2-ylmethoxy]benzamide] | 132 to 134 °C |  | 

Now from value to compound, other results behind:

melting point | inhibition at 0.1 µM (human MCHR1) | SMILES | inhibition in vivo at 10 mg/kg [1]
200 to 201 °C | 82% | Cn1c(CNC2CCS(=O)(=O)CC2)cc2cc(NC(=O)c3ccc(OCC4CC4)cc3)ccc21 [Example 6, 4-(cyclopropylmethoxy)-N-(2-{[(1,1-dioxidotetrahydro-2H-thiopyran-4-yl)amino]methyl}-1-methyl-1H-indol-5-yl)benzamide] | 
 | 98% | Cn1c(CN[C@H]2CC[C@](C)(O)CC2)cc2cc(NC(=O)c3ccc(OCC4CC4)cc3)ccc21 [Example 12, 4-(cyclopropylmethoxy)-N-(2-{[(trans-4-hydroxy-4-methylcyclohexyl)amino]methyl}-1-methyl-1H-indol-5-yl)benzamide] | 
 | 96% | Cn1c(CNCC(C)(C)C)cc2cc(NC(=O)c3ccc(OC[C@@H]4CCCO4)cc3)ccc21 [Example 15, N-(2-{[(2,2-dimethylpropyl)amino]methyl}-1-methyl-1H-indol-5-yl)-4-[(2S)-tetrahydrofuran-2-ylmethoxy]benzamide acetate] | 12.7%
128 to 129 °C | 91% | Cn1c(CNCC2CCOC2)cc2cc(NC(=O)c3ccc(OC[C@@H]4CCCO4)cc3)ccc21 (stereo partly drawn) [Example 20, N-(1-methyl-2-{[(tetrahydrofuran-3-ylmethyl)amino]methyl}-1H-indol-5-yl)-4-[(2S)-tetrahydrofuran-2-ylmethoxy]benzamide] | 20.3%
91 to 103 °C | 101% | Cc1c(NC(=O)c2ccc(OCC3CC3)cc2)ccc2cc(CN[C@H]3CC[C@](C)(O)CC3)[nH]c12 [Example 67, 4-(cyclopropylmethoxy)-N-(2-{[(trans-4-hydroxy-4-methylcyclohexyl)amino]methyl}-7-methyl-1H-indol-6-yl)benzamide] | 
183 to 184 °C |  | Cc1c(CN[C@H]2CC[C@](C)(O)CC2)n(C)c2c(C)c(NC(=O)c3ccc(OC[C@@H]4CCCO4)cc3)ccc12 [Example 109, N-(2-{[(trans-4-hydroxy-4-methylcyclohexyl)amino]methyl}-1,3,7-trimethyl-1H-indol-6-yl)-4-[(2S)-tetrahydrofuran-2-ylmethoxy]benzamide] | 
122 to 124 °C |  | Cc1c(CN[C@H]2CC[C@](C)(O)CC2)n(C)c2c(F)c(NC(=O)c3ccc(OC[C@@H]4CCCO4)cc3)ccc12 [Example 112, N-(7-fluoro-2-{[(trans-4-hydroxy-4-methylcyclohexyl)amino]methyl}-1,3-dimethyl-1H-indol-6-yl)-4-[(2S)-tetrahydrofuran-2-ylmethoxy]benzamide] | 
